Source: ChEMBL document CHEMBL4342409, “Recent advancements of 4-aminoquinazoline derivatives as kinase inhibitors and their applications in medicinal chemistry” (Eur J Med Chem, 2019)

Key:
[1] = biological target: Receptor tyrosine-protein kinase erbB-4 (Homo sapiens, UniProt Q15303); experiment: Inhibition of HER4 (unknown origin)
[2] = biological target: T1, Vascular endothelial growth factor receptor 2 (Homo sapiens, UniProt P35968); experiment: Inhibition of human recombinant GST-tagged VEGFR2 (catalytic domain 805 to 1356 residues) expressed in Sf9 insect cells incubated for 45 mins by Kinase-Glo assay
T1 sequence (P35968 whole entry, the tested form may be a part): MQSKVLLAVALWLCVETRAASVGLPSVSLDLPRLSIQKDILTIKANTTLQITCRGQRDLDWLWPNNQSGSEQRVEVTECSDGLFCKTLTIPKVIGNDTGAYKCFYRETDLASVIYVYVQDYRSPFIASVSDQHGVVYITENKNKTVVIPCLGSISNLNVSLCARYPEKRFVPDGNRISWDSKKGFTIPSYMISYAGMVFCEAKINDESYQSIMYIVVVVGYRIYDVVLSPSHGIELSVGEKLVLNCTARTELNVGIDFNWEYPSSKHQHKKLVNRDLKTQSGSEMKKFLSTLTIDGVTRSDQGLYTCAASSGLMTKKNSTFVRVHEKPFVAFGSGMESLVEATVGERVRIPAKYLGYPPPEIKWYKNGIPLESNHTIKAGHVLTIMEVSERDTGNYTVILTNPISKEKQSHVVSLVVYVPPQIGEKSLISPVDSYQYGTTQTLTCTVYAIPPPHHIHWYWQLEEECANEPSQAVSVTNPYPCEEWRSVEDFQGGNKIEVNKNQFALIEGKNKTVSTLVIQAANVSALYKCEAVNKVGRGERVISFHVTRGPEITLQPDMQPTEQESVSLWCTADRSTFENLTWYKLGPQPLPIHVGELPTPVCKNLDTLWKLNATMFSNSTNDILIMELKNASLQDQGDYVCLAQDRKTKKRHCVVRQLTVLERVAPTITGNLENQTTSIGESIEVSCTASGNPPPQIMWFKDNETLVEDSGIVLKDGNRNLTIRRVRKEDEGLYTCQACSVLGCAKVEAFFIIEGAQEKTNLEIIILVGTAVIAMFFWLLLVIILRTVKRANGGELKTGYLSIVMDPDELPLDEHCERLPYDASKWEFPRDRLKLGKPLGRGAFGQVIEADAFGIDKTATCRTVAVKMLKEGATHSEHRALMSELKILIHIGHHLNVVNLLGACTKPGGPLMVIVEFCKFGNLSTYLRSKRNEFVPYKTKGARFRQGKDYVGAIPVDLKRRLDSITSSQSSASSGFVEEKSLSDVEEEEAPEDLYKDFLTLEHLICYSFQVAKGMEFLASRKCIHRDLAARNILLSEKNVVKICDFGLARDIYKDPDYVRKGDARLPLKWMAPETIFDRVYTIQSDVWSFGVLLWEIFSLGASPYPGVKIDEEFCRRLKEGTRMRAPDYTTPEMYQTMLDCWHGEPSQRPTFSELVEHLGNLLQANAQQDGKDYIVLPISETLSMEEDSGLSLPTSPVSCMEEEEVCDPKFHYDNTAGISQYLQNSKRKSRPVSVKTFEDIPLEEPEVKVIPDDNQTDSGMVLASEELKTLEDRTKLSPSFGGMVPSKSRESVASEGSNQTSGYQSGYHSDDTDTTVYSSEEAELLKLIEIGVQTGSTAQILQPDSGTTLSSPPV

[3] = biological target: T1, Vascular endothelial growth factor receptor 2; experiment: Inhibition of VEGFR2 in human HUVEC assessed as reduction in cell proliferation at 10 uM incubated for 72 hrs by alamarBlue assay; format: cell-based
Human betaherpesvirus 5 = experiment: Antiviral activity against recombinant HCMV AD169 infected in human foreskin fibroblasts measured after 7 days by GFP-based multi-round replication assay relative to control; format: functional, organism-based; details: Human betaherpesvirus 5, AD169, 168 h
Plasmodium falciparum = experiment: Antimalarial activity against Plasmodium falciparum 3D7 infected in human erythrocytes after 72 hrs by SYBR Green1 dye based fluorescence assay relative to control; format: functional, organism-based; details: 3D7, 72 h
[4] = Cytotoxicity against human EC1 cells assessed as reduction in cell growth at 2 nM incubated for 48 and 72 hrs by MTT assay; format: functional
[5] = Cytotoxicity against human HKESC1 cells assessed as reduction in cell growth at 2 nM incubated for 48 and 72 hrs by MTT assay; format: functional
[6] = Cytotoxicity against human HKESC2 cells assessed as reduction in cell growth at 2 nM incubated for 48 and 72 hrs by MTT assay; format: functional
[7] = Cytotoxicity against human KYSE10 cells assessed as reduction in cell growth at 2 nM incubated for 48 and 72 hrs by MTT assay; format: functional
[8] = Cytotoxicity against human SLMT1 cells assessed as reduction in cell growth at 2 nM incubated for 48 and 72 hrs by MTT assay; format: functional
[9] = Cytotoxicity against human Embryonic stem cells assessed as reduction in cell growth at 2 nM incubated for 48 and 72 hrs by MTT assay; format: functional
[10] = biological target: T2, Proto-oncogene tyrosine-protein kinase Src (Homo sapiens, UniProt P12931); experiment: Inhibition of human recombinant Src expressed in baculovirus infected Sf9 insect cells assessed as reduction in phosphorylation of polyglutamic acid/tyrosine incubated for 15 mins by ELISA
T2 sequence (P12931 2-536 limits assumed): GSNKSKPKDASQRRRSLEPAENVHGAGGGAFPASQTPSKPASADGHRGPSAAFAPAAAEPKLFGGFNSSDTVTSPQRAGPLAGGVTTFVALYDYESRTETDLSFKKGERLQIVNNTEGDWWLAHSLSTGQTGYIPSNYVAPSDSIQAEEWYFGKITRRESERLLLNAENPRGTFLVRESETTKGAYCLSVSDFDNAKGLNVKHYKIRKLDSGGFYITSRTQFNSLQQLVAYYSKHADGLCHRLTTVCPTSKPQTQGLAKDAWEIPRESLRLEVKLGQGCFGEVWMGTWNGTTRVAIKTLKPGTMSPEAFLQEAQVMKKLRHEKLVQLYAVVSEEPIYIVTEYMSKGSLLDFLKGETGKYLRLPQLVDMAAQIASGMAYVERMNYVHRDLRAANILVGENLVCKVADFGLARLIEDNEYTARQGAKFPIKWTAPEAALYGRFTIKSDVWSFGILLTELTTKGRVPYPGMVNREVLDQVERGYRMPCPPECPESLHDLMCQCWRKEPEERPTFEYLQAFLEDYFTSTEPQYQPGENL

A549 = experiment: In vivo inhibition of neo-vascularisation in human A549 cells xenografted in athymic mouse at 50 mg/kg/day, po administered for 5 days measured after 24 hrs of last dose by light microscopy; format: functional
DU-145 = experiment: Antitumor activity against human DU145 cells xenografted in CB17 SCID model mouse assessed as inhibition of tumor growth at 25 mg/kg, po administered for 54 days; format: functional; set-up: scale not given: the % may be the effect or the level left
[11] = biological target: T3, Epidermal growth factor receptor (Homo sapiens, UniProt P00533)
T3 sequence (P00533 whole entry): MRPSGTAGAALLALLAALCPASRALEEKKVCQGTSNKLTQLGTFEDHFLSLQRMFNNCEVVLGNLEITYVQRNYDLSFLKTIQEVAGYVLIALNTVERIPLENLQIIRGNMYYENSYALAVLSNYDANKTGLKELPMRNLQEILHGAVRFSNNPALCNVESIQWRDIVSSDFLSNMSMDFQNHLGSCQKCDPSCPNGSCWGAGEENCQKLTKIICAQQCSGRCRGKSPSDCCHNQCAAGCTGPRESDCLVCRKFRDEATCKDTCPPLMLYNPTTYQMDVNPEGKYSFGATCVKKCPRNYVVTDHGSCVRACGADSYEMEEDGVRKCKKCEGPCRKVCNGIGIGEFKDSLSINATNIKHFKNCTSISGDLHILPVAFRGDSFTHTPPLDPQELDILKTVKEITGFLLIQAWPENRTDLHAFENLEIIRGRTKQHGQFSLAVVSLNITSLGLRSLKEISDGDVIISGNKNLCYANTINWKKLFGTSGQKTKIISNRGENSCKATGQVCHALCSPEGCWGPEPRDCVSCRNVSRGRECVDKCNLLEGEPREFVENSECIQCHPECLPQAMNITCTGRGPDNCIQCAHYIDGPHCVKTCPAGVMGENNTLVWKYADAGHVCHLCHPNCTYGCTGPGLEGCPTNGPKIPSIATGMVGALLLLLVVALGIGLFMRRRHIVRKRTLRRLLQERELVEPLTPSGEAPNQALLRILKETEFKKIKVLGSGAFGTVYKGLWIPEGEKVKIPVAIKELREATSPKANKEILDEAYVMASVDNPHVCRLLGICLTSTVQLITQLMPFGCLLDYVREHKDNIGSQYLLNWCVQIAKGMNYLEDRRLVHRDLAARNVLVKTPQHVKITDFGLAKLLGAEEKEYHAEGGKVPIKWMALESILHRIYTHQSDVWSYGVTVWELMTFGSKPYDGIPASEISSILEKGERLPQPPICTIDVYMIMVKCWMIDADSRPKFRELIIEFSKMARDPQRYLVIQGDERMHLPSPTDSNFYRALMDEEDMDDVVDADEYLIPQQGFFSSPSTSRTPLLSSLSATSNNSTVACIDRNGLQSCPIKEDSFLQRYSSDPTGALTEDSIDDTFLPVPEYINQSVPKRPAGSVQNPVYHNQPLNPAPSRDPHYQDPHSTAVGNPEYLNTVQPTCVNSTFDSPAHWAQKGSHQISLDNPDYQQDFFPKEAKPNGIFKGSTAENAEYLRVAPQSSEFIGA
Description: Inhibition of EGFR (unknown origin)

[12] = biological target: T2, Proto-oncogene tyrosine-protein kinase Src; experiment: Inhibition of SRC (unknown origin)
[13] = biological target: Vascular endothelial growth factor receptor 3 (Homo sapiens, UniProt P35916); experiment: Inhibition of VEGFR3 (unknown origin)
[14] = biological target: Epidermal growth factor receptor (Homo sapiens, UniProt P00533, L858R/T790M); experiment: Inhibition of human recombinant GST-tagged EGFR L858R/T790M mutant (catalytic domain 695 to end) expressed in baculovirus-infected Sf9 cells assessed as reduction in phosphorylation of polyglutamic acid/tyrosine incubated for 60 mins by ADP-Glo assay
[15] = biological target: T3, Epidermal growth factor receptor; experiment: Inhibition of human recombinant GST-tagged EGFR (catalytic domain 695 to end) expressed in baculovirus-infected Sf9 cells assessed as reduction in phosphorylation of polyglutamic acid/tyrosine incubated for 60 mins by ADP-Glo assay
[16] = Antiproliferative activity against human NHBE cells assessed as reduction in cell viability incubated for 72 hrs by MTT assay; format: cell-based
[17] = biological target: Epidermal growth factor receptor (Homo sapiens, UniProt P00533, T790M); experiment: Inhibition of EGFR T790M mutant (unknown origin)
[18] = biological target: T1, Vascular endothelial growth factor receptor 2; experiment: Inhibition of VEGFR2 (unknown origin)
[19] = Antitumor activity against rat FRE-erbB2 cells xenografted in CD-1 mouse assessed as tumor growth inhibition at 50 mg/kg, po after 1 hr by ELISA relative to control; format: functional; details: read-out: TGI
[20] = biological target: T4, Aurora kinase A (Homo sapiens) (UniProt O14965); experiment: Inhibition of Aurora A in human MCF7 cells relative to control; format: cell-based; details: concentration not given here
T4 sequence (whole entry): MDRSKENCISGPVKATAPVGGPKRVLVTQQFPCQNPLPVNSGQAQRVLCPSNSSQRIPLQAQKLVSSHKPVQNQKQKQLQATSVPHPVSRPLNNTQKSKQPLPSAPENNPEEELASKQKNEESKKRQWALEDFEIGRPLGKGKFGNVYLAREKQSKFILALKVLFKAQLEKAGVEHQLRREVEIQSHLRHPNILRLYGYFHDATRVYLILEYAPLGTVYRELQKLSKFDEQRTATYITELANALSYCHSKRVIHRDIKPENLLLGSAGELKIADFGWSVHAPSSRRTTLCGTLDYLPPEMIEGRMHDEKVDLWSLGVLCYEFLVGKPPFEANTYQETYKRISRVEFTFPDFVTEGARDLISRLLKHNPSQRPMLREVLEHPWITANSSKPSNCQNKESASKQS

Receptor tyrosine-protein kinase erbB-4, sequence (Q15303 whole entry, the tested form may be a part): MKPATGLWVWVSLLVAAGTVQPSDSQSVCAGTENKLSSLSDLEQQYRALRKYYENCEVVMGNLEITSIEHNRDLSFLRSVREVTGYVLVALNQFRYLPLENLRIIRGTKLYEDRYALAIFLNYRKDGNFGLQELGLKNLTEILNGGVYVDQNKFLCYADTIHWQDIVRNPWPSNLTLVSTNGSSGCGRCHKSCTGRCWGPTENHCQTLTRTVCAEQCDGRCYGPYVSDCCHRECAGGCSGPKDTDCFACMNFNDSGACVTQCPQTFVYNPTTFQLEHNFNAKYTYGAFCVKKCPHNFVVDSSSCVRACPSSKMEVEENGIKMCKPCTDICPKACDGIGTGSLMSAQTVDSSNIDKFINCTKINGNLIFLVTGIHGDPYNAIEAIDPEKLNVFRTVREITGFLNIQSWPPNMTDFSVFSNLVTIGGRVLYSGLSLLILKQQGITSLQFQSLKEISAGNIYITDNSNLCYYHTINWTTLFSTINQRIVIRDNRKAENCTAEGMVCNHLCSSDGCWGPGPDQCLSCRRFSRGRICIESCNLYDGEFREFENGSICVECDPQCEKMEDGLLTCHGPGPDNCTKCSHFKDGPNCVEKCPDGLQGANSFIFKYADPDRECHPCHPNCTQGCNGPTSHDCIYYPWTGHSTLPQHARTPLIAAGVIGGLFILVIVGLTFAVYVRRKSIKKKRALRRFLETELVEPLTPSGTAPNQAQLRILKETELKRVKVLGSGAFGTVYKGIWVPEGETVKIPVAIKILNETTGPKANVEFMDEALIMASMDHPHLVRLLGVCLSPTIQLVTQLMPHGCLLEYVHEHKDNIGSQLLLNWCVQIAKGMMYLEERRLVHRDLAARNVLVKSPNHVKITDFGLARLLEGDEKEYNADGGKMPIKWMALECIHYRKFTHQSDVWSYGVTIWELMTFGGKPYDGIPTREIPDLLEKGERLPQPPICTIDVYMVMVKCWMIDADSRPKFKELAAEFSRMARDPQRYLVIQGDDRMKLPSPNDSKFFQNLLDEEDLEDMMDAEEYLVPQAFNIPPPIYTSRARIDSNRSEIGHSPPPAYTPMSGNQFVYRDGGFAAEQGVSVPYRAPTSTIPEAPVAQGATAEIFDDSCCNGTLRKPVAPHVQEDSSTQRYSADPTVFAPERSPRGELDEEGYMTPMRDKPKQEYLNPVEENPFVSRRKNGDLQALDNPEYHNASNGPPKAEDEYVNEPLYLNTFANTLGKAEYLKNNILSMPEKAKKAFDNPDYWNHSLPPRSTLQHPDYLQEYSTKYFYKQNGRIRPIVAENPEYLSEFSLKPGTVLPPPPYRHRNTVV

C[C@@H]1COC(Nc2ccc3ncnc(Nc4ccc(OCc5nccs5)c(Cl)c4)c3c2)=N1 [VARLITINIB]
IC50 [1]: 0.004 µM

COc1cc2ncnc(-n3ncc4cc(NC(=O)Nc5ccc(C)c(Cl)c5)ccc43)c2cc1OC
IC50 [2]: 0.005 µM
inhibition [3]: 80 to 99.6%

C[C@H]1[C@@H](CC(=O)Nc2ccc3ncnc(Nc4ccc(Cl)c(Cl)c4)c3c2)O[C@@H]2O[C@@]3(C)CC[C@H]4[C@H](C)CC[C@@H]1[C@@]24OO3
EC50 (Human betaherpesvirus 5): 150 to 210 µM

C[C@H]1[C@H](OC(=O)CCC(=O)Nc2ccc3ncnc(Nc4ccc(Cl)c(Cl)c4)c3c2)O[C@@H]2O[C@@]3(C)CC[C@H]4[C@H](C)CC[C@@H]1[C@@]24OO3
EC50 (Plasmodium falciparum): 0.0014 µM
EC50 (Human betaherpesvirus 5): 150 to 210 µM

CN(C)C/C=C/C(=O)Nc1cc2c(Nc3ccc(F)c(Cl)c3)ncnc2cc1O[C@H]1CCOC1 [AFATINIB]
inhibition at 0.002 µM [4]: > 95%
inhibition at 0.002 µM [5]: > 95%
inhibition at 0.002 µM [6]: > 95%
inhibition at 0.002 µM [7]: > 95%
inhibition at 0.002 µM [8]: > 95%
inhibition at 0.002 µM [9]: > 95%

COc1ccc(Cl)c(Nc2ncnc3cc(OCC4CCN(C)CC4)c(OC)cc23)c1 [AZM-475271]
IC50 [10]: 0.005 µM

COc1cc2/c(=N/c3ccc(Br)cc3F)nc[nH]c2cc1OCC1CCN(C)CC1 [VANDETANIB]
inhibition in vivo at 50 mg/kg/day (A549): 63%

CN1CCN(CCOc2cc(OC3CCOCC3)c3c(Nc4c(Cl)ccc5c4OCO5)ncnc3c2)CC1 [SARACATINIB]
Activity (DU-145): 45%

COc1cc2ncnc3c2cc1OCCCCCN(C)Cc1ccc(Br)cc1N3 [JNJ-26483327]
IC50 [11]: < 0.01 µM
IC50 [1]: 0.011 to 0.099 µM
IC50 [12]: 0.011 to 0.099 µM
IC50 [13]: 0.011 to 0.099 µM

C=CC(=O)Nc1ccc(Nc2ncnc3cc(OC)c(OCCN4CCOCC4)cc23)cc1
IC50 [11]: 0.105 µM
IC50 [14]: 0.0043 µM
IC50 [15]: 0.105 µM
IC50 [16]: > 34 µM
IC50 [17]: 0.0043 µM

C=CC(=O)Nc1cc2c(Nc3ccc(Br)cc3F)ncnc2cc1OCCCC(=O)CN(C)C
IC50 [11]: 0.002 µM
IC50 [18]: 0.103 µM

COCC(=O)NC/C=C/c1ccc2ncnc(Nc3ccc(Oc4ccc(C)nc4)c(C)c3)c2c1 [CP-724714]
inhibition in vivo at 50 mg/kg [19]: 50%

COc1cc2c(Nc3ccc(C(=O)Nc4ccccc4)cc3)ncnc2cc1O
inhibition [20]: 60%
